# Results from patent publication US20210338767A1, “METHODS OF SELECTING TREATMENT FOR CXCR4-ASSOCIATED CANCER” (BioLineRx Ltd., priority 2018, published 2021).
# Positions of bridges follow the written chain, without caps; N, C: chain ends. Non-standard residues stand in square brackets, D forms with d. *: point of attachment. Benzoyl(4-F) = O=C(c1ccc(F)cc1)*; Cit = NC(=O)NCCC[C@H](N)C(=O)O
# Experiments:
# [1] = test system: relapsed or refractory AML; experiment: Phase 2a study of BL-8040 combined with high dose Ara-C (HiDAC) in relapsed/refractory AML: efficacy; format: in vivo, human
# Description: Subjects were accrued in a conventional 3+3 design.
# Follow-up period started after completion of Ara-C chemotherapy and continued for up to 6 weeks after initiation of salvage chemotherapy with Ara-C, i.e., up to Day 44. Subjects participating in the expansion phase were followed for up to 5 years after completion of the follow-up period. Subjects were contacted by telephone at approximately 3-month intervals (±1 month) after the end of the follow-up period to determine AML status and survival.
# [2] = test system: AML blasts; experiment: Pharmacodynamic assessment: mobilization and differentiation of AML blasts (peripheral blood, bone marrow); format: in vivo, human
# Method: (§1) FIGS. 3A-D show BL-8040 Mediated CXCR4 Receptor Occupancy and Induce Mobilization and Differentiation of AML Blasts. (A) Fold change in level of occupied CXCR4 receptor prior and post treatment with low (0.5, 0.75 and 1 mg/kg) and high (1.25, 1.5 and 2 mg/kg) BL-8040 dose levels. (B) Fold change in AML blast counts pre and post BL-8040 and BL-8040+HiDAC treatments in responders and non-responders. (C) Fold change in the level of AML blasts in the BM following BL-8040 treatment (D) Change in levels of BM Granulocytes following 2 days of BL-8040 treatment.
# [3] = target: T1, CXCR4 receptor (Homo sapiens, UniProt P61073); experiment: Pharmacodynamic assessment: CXCR4 receptor occupancy prior and post BL-8040 treatment; format: in vivo
# T1 construct: Fold change in level of occupied CXCR4 receptor prior and post treatment with low (0.5, 0.75 and 1 mg/kg) and high; endogenous in cells
# T1 sequence (P61073 whole entry): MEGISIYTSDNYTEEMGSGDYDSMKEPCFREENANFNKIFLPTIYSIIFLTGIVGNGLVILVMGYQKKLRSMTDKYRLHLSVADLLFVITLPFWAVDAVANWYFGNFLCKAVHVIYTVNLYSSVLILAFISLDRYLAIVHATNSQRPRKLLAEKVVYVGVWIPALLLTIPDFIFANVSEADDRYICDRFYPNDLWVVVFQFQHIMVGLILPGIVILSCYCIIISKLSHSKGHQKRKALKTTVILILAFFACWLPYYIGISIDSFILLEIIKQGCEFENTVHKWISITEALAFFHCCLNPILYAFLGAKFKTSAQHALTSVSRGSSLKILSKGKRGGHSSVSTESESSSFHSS
# Method: as §1
# Receptor occupancy is typically assessed using two monoclonal antibodies (mAbs) binding to two different epitopes of the CXCR4 antigen. […] It will be appreciated that receptor occupancy can also be determined by using an antibody which binds peptide-free CXCR4 prior to and post contacting with the peptide (e.g., 12G5, supra).
# According to a specific embodiment, the receptor occupancy is determined as follows: Percent or number of CXCR4 expressing cells (e.g., using 12G5 Ab) post drug (e.g., SEQ ID NO: 1) treatment out of percent or number of CXCR4 expressing cells (e.g., using 12G5 Ab) prior to drug (e.g., SEQ ID NO: 1) treatment *100, such a calculation provides receptor occupancy per cell.
# [4] = test system: malignant cells of hematopoietic origin including AML; settings: cited from earlier work
# [5] = all patients at all BL-8040 dose levels (N=42)
# [6] = responding subjects at the 1.5 mg/kg dose (9/23 with CR/CRi)
# [7] = responding subjects within the 1.5 mg/kg dose group
# [8] = subjects receiving 1.5 mg/kg (N=23)
# [9] = responding patients following BL-8040 treatment vs baseline, compared to non-responders
substance,measurement,setting,value
4F-benzoyl-Arg-Arg-Nal-Cys-Tyr-Cit-Lys-DLys-Pro-Tyr-Arg-Cit-Cys-Arg-NH2 ({Benzoyl(4-F)}-RR[Nal]CY[Cit]K[dK]PYR[Cit]CR-NH2; disulfide 4-13 (inferred)) [BL-8040],1-year survival rate,[1]; [5],37.2%
same,2-years survival rate,[1]; [5],20%
same,3-years survival rate,[1]; [5],16%
same,median overall survival (mOS),"[1]; all patients at all BL-8040 dose levels (N=42), with HiDAC",9.1 months
same,composite CR rate (CR and CRi),"[1]; expansion group that received 1.5 mg/kg BL-8040 (9/23), with HiDAC",39%
same,composite CR rate (CR and CRi),"[1]; refractory patients (9/19), with HiDAC",47%
same,composite CR rate (CR and CRi),"[1]; relapsed patients (3/23), with HiDAC",13%
same,1-year survival rate,[1]; [6],66.7%
same,2-years survival rate,[1]; [6],44.4%
same,3-years survival rate,[1]; [6],44.4%
same,median overall survival (mOS),[1]; [6],21.8 months
same,EFS at 1 year,[1]; [7],55.6%
same,EFS at 2 years,[1]; [7],22.2%
same,EFS at 3 years,[1]; [7],22.2%
same,median duration of response (mDOR),[1]; [7],17.4 months
same,1-year survival rate,[1]; [8],38.1%
same,2-year survival rate,[1]; [8],23.8%
same,3-year survival rate,[1]; [8],23.8%
same,median overall survival (mOS),[1]; [8],10.7 months
same,levels of granulocytes in BM,"[2]; responders vs non-responders relative to screening, following BL-8040 treatment",Statistically significant increased levels of granulocytes
same,leukemic blasts in BM,[2]; [9],decreased numbers of leukemic blasts in BM
same,mobilized leukemic blasts in peripheral blood,[2]; [9],statistically significant increased numbers of mobilized leukemic blasts
same,CXCR4 receptor occupancy,"[3]; high BL-8040 dose levels (1.25, 1.5 and 2 mg/kg)",demonstrated CXCR4 receptor occupancy
same,CXCR4 receptor occupancy,"[3]; low BL-8040 dose levels (0.5, 0.75 and 1 mg/kg)",insignificant changes in receptor occupancy
same,cytotoxicity toward malignant cells,[4],CXCR4-dependent preferential cytotoxicity
